What is called inhibition is how much of the control response was suppressed. The term IC50 denotes the midpoint of a concentration-inhibition curve. Higher therefore signals weaker potency in that assay.

Results on three molecules are retold here after patent US5312838A, “β-alanineamide aryl/alkylsulfide/sulfonyl-terminated amino-diol compounds for treatment of hypertension” (G. D. Searle & Co., priority 1992, dated 1994).

For one assay, the target named is T1, human renin (Homo sapiens, UniProt P00797).
T1 construct: purchased National Institute for Biological Standards, London
T1 sequence (P00797 67-406): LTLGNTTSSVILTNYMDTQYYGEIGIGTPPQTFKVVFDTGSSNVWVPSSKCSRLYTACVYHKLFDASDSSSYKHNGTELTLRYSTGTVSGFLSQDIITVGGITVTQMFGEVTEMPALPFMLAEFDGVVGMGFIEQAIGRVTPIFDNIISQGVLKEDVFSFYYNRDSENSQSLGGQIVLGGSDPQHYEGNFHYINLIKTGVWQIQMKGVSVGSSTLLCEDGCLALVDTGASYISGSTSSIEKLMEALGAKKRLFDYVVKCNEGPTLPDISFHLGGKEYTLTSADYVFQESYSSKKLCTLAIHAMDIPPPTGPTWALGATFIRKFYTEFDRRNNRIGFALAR
The assay is described as follows: Human Renin Inhibition in vitro (angiotensin I by radioimmunoassay). In kind it is biochemical. The settings on record: pH 7.4, 37° C., two hours, human plasma. How it is done: Compounds of Formula I were evaluated as inhibitors of human renin in an in vitro assay, as follows: This human renin inhibition test has been previously described in detail [Papaioannou et al., Clinical and Experimental Hypertension, A7(9), 1243-1257 (1985)]. Human renin was obtained from the National Institute for Biological Standards, London. An incubation mixture was prepared containing the following components: in a total volume of 0.25 mL: 100 mM Tris-acetate buffer at pH 7.4, 25×10^-6 Goldblatt units of renin, 0.05 mL of plasma from human volunteers taking oral contraceptives, 6.0 mM Na-EDTA, 2.4 mM phenylmethyl sulfonyl fluoride, 1.5 mM 8-hydroxyquinoline, 0.4 mg/mL bovine serum albumin (BSA), and 0.024 mg/mL neomycin sulfate. This mixture was incubated for two hours at 37° C. in the presence or absence of renin inhibitors. The produced angiotensin I was determined by radioimmunoassay (New England Nuclear kit). Test compounds to be assayed were dissolved in DMSO and diluted with 100 mM Tris-acetate buffer at pH 7.4 containing 0.5% BSA to the appropriate concentration. The final concentration of organic solvent in the reaction mixture was less than 1%. Control incubations at 37° C. were used to correct for effects of organic solvent on renin activity.

For another assay, the system named is renin. The settings on record: Umezawa et al, J. Antibiot. 1970; cited from earlier work.
For another assay, the system named is cathepsin D. The settings on record: Umezawa et al, J. Antibiot. 1970; cited from earlier work.
For a further assay, the system named is pepsin. The settings on record: Umezawa et al, J. Antibiot. 1970; cited from earlier work.
The subject of the next assay is hog renin. The settings on record: after injection of hog renin into nephrectomized rats; Gross et al, Science 1971; cited from earlier work.

SMILES strings stand for the structures. Where a SMILES comes first, the peptide text is derived from it. [ ]: non-standard residue; d: D form. The star is where a group is joined. Sta = CC(C)C[C@H](N)[C@@H](O)CC(=O)O; Isovaleryl = CC(C)CC(=O)*

The molecule `CC(C)C[C@H](O)[C@H](O)[C@H](CC1CCCCC1)NC(=O)C(C)CNC(=O)C(CSC(C)(C)C)Cc1ccccc1` (stereo partly drawn) [Example 2, N-[3-[[1S,1R*-(cyclohexylmethyl)-2S*,3R*-dihydroxy-5-methylhexyl]amino]-2S*-methyl-2-3-oxopropyl]-α-[[(1,1-dimethylethyl)thio]methyl]benzenepropanamide] displayed an inhibition at 0.01 µM against human renin (@ 10 nM) of 30%.
In turn, `CC(C)C[C@H](O)[C@H](O)[C@H](CC1CCCCC1)NC(=O)C(C)CNC(=O)C(Cc1ccccc1)CS(=O)(=O)C(C)(C)C` (stereo partly drawn) [Example 1, N-[3-[[1S,1R*-(cyclohexylmethyl)-2S*,3R*-5-methylhexyl]amino]-2S*-methyl-3-oxopropyl]-α-[[(1,1-dimethylethyl)sulfonyl]methyl]benzenepropanamide] displayed an IC50 against human renin of 10 nM.
As for `CC(C)CC(=O)N[C@H](C(=O)N[C@H](C(=O)N[C@@H](CC(C)C)[C@@H](O)CC(=O)N[C@@H](C)C(=O)N[C@@H](CC(C)C)[C@@H](O)CC(=O)O)C(C)C)C(C)C` [pepstatin] (Isovaleryl-VV[Sta]A[Sta]-OH), in the assay on renin, the inhibitor of renin result is on record as “inhibitor”. Further, the “inhibitor of cathepsin D” value in the assay on cathepsin D is given as “inhibitor”. For the same molecule, the inhibitor of pepsin result with pepsin is given as “inhibitor”. Moreover, the “blood pressure in vivo” value in the assay on hog renin is given as “reduce blood pressure”.
